Results published in article PMC8639922, “KSHV transactivator-derived small peptide traps coactivators to attenuate MYC and inhibits leukemia and lymphoma cell growth” (Communications Biology, 2021).
Square brackets hold non-standard residues; d marks the D form. Peptide text beside a SMILES is read from it. Orn = NCCC[C@H](N)C(=O)O; βAla = NCCC(=O)O

Legend:
[1] = format: in vivo, BALB/c mice; conditions: BALB/c female, 10 mg/kg i.p., 5 day-on 2 day-off, two weeks, average n=5/group
Protocol: Based on strong and selective MYC down-regulation and cell killing activity of cancer cells in vitro, we next studied the therapeutic potential of VGN50 by examining the efficacy of cancer cell killing over toxicities to mice in a PEL xenograft model with BCBL-1 cells. Pilot studies determined that the peptide was well-tolerated in immunocompetent mice when administered as 10 mg/kg peptide via intraperitoneal (i.p.) injection with a 5-day-on 2-day-off schedule for 2 weeks, as shown by no notable changes in body weight, complete blood counts, and serum biochemical properties (Supplementary Fig. 5). Based on the drug schedule, we examined the effects of the peptide on xenograft PEL cell growth. In this established model, BCBL-1 cells grow in the peritoneal cavity resulting in the accumulation of ascites, which can be measured as a body weight gain that corresponds to the volume of ascites. We inoculated male NRG mice with 2 × 10^7 BCBL-1 cells via i.p. injection followed by injections of VGN50 (10 mg/kg), mutant control peptide or PBS, daily for 10 days starting from 2 days after (day 0) tumor inoculation. All mice in the control PBS-treated groups reached the humane endpoint by 10 days (Fig. 6a). […] At the termination point, tumor growth was also validated by flow cytometry analysis of PEL cells in ascites fluid (Fig. 6b, c). […] A similar phenotype is reported in MYC knock-out cardiac myocytes and keratinocytes[56],[57].
PBS VGN50 Mutant Normal ranges […]
Ext ended Dat a Fi gure 5. BALB/ c mi ce ( 8 weeks ol d, female, n=5/ gr oup) wer e i nj ect ed wi t h 10mg/ kg of VGN50 or mut ant pept i de i n 200 uL i.p. wi t h a 5 day-on 2 day off schedul e f or t wo week s . Body wei ght changes wer e measur ed dai l y ( a) . At t he end of t he exper i ment , f r esh bl ood and ser um col l ect ed wer e subj ect ed f or complet e blood count s and serum biochemical pr oper t i es, r espect i vel y ( b) .
(1 picture or pasted object on this page, not shown here)

KSHV PAN RNA in BCBL-1 = assay: KSHV PAN RNA qRT-PCR (reactivation); format: cell-based; conditions: BCBL-1, 16 μM, 24 h
Protocol: Because VGN50 is derived from the KSHV transactivator sequence, we next examined if VGN50 can inhibit KSHV lytic replication by competitively blocking the coactivator binding to K-Rta. To study this, we used the TREx-K-Rta BCBL-1 cell line, in which we can trigger the expression of exogenous Flag-tagged K-Rta in a doxycycline (Dox) inducible manner. TREx-K-Rta BCBL-1 cells were treated with […] VGN50 or mutant peptide, with or without Dox induction. We used approximately one-half of the IC50 concentration of VGN50 to treat the TREx-K-Rta BCBL-1 cells in order to avoid cell toxicity effects that would non-specifically decrease viral gene expression. KSHV gene expression was profiled with a KSHV genome-wide PCR array, using ribosomal rRNA for normalization and as an internal control. Fold activation relative to the uninduced Mut-P-treated sample (not induced: Dox -) was determined and a heatmap for KSHV lytic gene expression was generated (Fig. 3a). […] Immunoblotting was used to confirm the induction of lytic replication by Dox based on exogenous K-Rta protein (Flag-K-Rta) and the expression of two other KSHV lytic proteins (ORF57 and K-bZIP) along with actin and KSHV LANA protein as controls for equal loading and similar viral copy numbers in samples, respectively (Fig. 3b).
Fig. 3 Effects of VGN50 on KSHV gene transcription and VGN50 binding with SWI/SNF components. a KSHV qRT-PCR array analysis was used to study effects of VGN50 on KSHV gene transcription in a genome-wide manner. Uninduced (−; no doxycycline added) or dox-induced (+; 1 μg/ml) cells were treated with VGN50 or the mutant peptide (Mut-P) at a concentration of 24 μM. Samples were collected at 24 h post-treatment. Expression in uninduced cells was set as 1 for each viral gene and expression shown as fold activation relative to no-Dox samples. Selected cellular genes were also included in the PCR array for comparison. 18S ribosomal RNA was used as an internal control. b KSHV protein expression. Immunoblotting was performed to confirm both endogenous and exogenous K-Rta expression before (not induced) and after induction by Dox treatment (Dox-induced). Latent KSHV protein LANA and actin were used as controls for KSHV copy number (LANA) and loading (actin), respectively. Protein samples were collected 48-h post Dox incubation. c KSHV reactivation by VGN50 incubation. BCBL-1 and BC-1 cell lines were treated with VGN50 (16 μM concentration) and total RNA harvested at 24 h post treatment. KSHV PAN RNA expression was examined by qRT-PCR and relative expression over 18S rRNA is shown. Data are presented as mean ± SD (n = 3). d Purification of recombinant SWI/SNF components. SDS-PAGE analysis of five SWI/SNF components individually prepared from baculovirus-infected Sf9 cells. e A schematic illustration of ELISA assay to evaluate VGN50 and SWI/SNF interaction. f Analysis of VGN50 binding to SWI/SNF components by ELISA. Increasing concentrations of biotin-conjugated VGN50 or Mut-P were incubated in duplicate in an ELISA plate coated with each SWI/SNF component. Peptide binding measured as OD values at 450 nm are shown. Mean OD values were compared between the VGN50 and Mut-P in each concentration using unpaired t-test. **p < 0.01, *p < 0.05, NS no significance. Data are presented as mean ± SD with duplicated samples and repeated three times with different purified protein preps.

For `CC(C)C[C@H](NC(=O)CCNC(=O)[C@H](CCCNC(=N)N)NC(=O)[C@H](CCCNC(=N)N)NC(=O)[C@H](CCCNC(=N)N)NC(=O)[C@H](CCCN)NC(=O)[C@H](CCCNC(=N)N)NC(=O)[C@H](CCCNC(=N)N)NC(=O)[C@H](CCCCN)NC(=O)[C@H](CCCCN)NC(=O)[C@H](N)CCCNC(=N)N)C(=O)N[C@@H](CO)C(=O)N[C@@H](CO)C(=O)N[C@@H](C)C(=O)N[C@@H](C)C(=O)N[C@@H](C)C(=O)NCC(=O)N[C@@H](CC(C)C)C(=O)N[C@@H](Cc1ccc(O)cc1)C(=O)N[C@@H](CCC(N)=O)C(=O)N[C@@H](CC(C)C)C(=O)N[C@@H](CC(=O)O)C(=O)N[C@H](C(=O)O)[C@@H](C)O` [Mt-P] (H-[dR]KKRR[Orn]RRR[βAla]LSSAAAGLYQLDT-OH; N-terminus and C-terminus assumed), the “Absolute Basophil cells” value ([1]; normal 0.0-0.1) was 0.06 K/ul, the “Absolute Eosinophil cells” value ([1]; normal 0.0-0.1) was 0.14 K/ul and the “Total Bilirubin” value ([1]; normal 0.0-0.2) was 0.05 mg/dL. It also gave a Creatinine ([1]; normal 0.0-0.3) of 0.20 mg/dL, a Basophil % ([1]; normal 0.0-0.5) of 0.70% and an Eosinophil % ([1]; normal 0.0-0.8) of 2.14%. The “Alanine Transaminase” value ([1]; normal 0-403) was 82.85 U/L, the “Aspartate Transaminase” value ([1]; normal 0-552) was 651.13 U/L and the “Absolute Monocyte cells” value ([1]; normal 0.2-1.0) was 0.43 K/ul. For the same compound, the “Absolute Neutrophil cells” value ([1]; normal 1.0-3.7) was 1.12 K/ul, the Monocyte % ([1]; normal 2.5-7.5) was 5.52% and the Albumin ([1]; normal 2.9-4.0) was 3.67 g/dL. For the same compound, the “Absolute Lymphocyte cells” value ([1]; normal 4.3-10.6) was 2.54 K/ul, the “Total Protein” value ([1]; normal 4.7-6.1) was 4.81 g/dL and the MPV ([1]; normal 5.0-20.0) was 3.05 fL. The WBC ([1]; normal 5.1-14.7) was 4.22 K/ul, the Potassium ([1]; normal 6.9-10.0) was 6.90 mmol/L and the Phosphorus ([1]; normal 7.5-10.7) was 7.46 mg/dL. For the same compound, the Calcium ([1]; normal 9.6-11-5) was 9.39 mg/dL, the Hemoglobin ([1]; normal 11.7-16.2) was 7.07 g/dL and the RDW % ([1]; normal 12.4-27.0) was 10.08%. For the same compound, the Neutrophil % ([1]; normal 12.5-31.2) was 16.70%, the MCH ([1]; normal 13.3-16.7) was 7.62 pg and the “Blood Urea Nitrogen” value ([1]; normal 15.2-34.7) was 20.03 mg/dL. For the same compound, the MCHC ([1]; normal 27.6-32.9) was 13.18 g/dL, the Hematocrit % ([1]; normal 38.3-54.0) was 27.72% and the MCV ([1]; normal 45.3-53.6) was 29.04 fL. For the same compound, the “Alkaline Phosphatase” value ([1]; normal 49-172) was 129.20 U/L, the Lymphocyte % ([1]; normal 62.9-82.7) was 31.21% and the Chloride ([1]; normal 105-118) was 112.13 mmol/L. It also gave a Glucose ([1]; normal 130-254) of 194.73 mg/dL, a Sodium ([1]; normal 150-160) of 145.25 mmol/L and a Platelets ([1]; normal 574-1079) of 333.29 K/uL. For the same compound, the Amylase ([1]; normal 2463-6660) was 1624.05 U/L, the “KSHV PAN RNA relative expression over 18S rRNA” value (from here on “KSHV PAN RNA relative expression”) (KSHV PAN RNA in BCBL-1; replicate 1) was 0.0001238 and the “KSHV PAN RNA relative expression” value (KSHV PAN RNA in BCBL-1; replicate 2) was 0.0001335. For the same compound, the “KSHV PAN RNA relative expression” value (KSHV PAN RNA in BCBL-1; replicate 3) was 0.0001325.
